{"source": "patent US20250049800A1", "about": "“VCP/p97 INHIBITOR FOR THE TREATMENT OF CANCER” (CASI Pharmaceuticals, Inc., priority 2021, published 2025)", "key": {"[1]": {"test": "Phase I study: plasma pharmacokinetics of orally administered Compound 1", "format": "in vivo, human", "settings": "for Cmax / Tmax / half-life / AUC(0-inf) / AUC(0-t): human, plasma, oral", "text": "The study was designed as a multicenter, open-label Phase 1 study of orally administered Compound 1 in participants with R/R AML or participants with R/R intermediate- to high-risk MDS. […] Additional cohorts for participants with R/R intermediate- to high-risk MDS following hypomethylating agents or other AML cohorts may be added at a later time.\nSimilar dosing may be used in the dose expansion part of the study. […] Additional intensive PK testing is collected for any participants undergoing intra-patient dose escalation.\nAt the conclusion of the 900 mg QD cohort, subjects were enrolled in cohorts for BID dosing, starting with the 300 mg BID dosing.\nSubjects were treated with Compound 1 QD as described in Example 2.\nSubjects were treated with Compound 1 QD or BID dosing as described in Example 2 and blood samples were taken from subjects and analyzed as described in Example 3. Tables 16 and 17 show pharmacokinetic analyses for QD dosing for 100 mg, 175 mg, 275 mg, 350 mg, 400 mg and 900 mg cohorts and BID dosing for 300 mg and 350 mg cohorts. Abbreviations in Table 16 and Table 17: AR=Day 4 AUC0-24/Day 1 AUC0-24, NR=not reported; NA=not available. […] FIG. 9 and FIG. 10 show AUC for day 1 and day 4 of dosing with doses between 350-900 mg QD compared with 350 mg BID."}, "[2]": {"test": "Phase I study: safety, adverse events and visual symptoms", "format": "in vivo, human", "experimental": "Similar dosing may be used in the dose expansion part of the study. BID dosing may be also tested depending on initial PK assessments. Participants were evaluated regularly for safety assessments including physical examinations and laboratory testing. Bone marrow aspirates and/or biopsies are performed at regular intervals, including for assessment of tumor response as per 2017 European LeukemiaNet (ELN) response criteria for AML or 2006 revised International Working Group (IWG) response criteria for MDS. Peripheral blood samples are collected in Cycle 1 for intensive PK testing and PD biomarker assessments. Additional intensive PK testing is collected for any participants undergoing intra-patient dose escalation."}}, "note": "Several values for one entry are separate records, joined by “and”; a condition that tells them apart may be missing. Identical values can stand only once."}
{"compound": "Cc1cc2c(C(N)=O)cccc2n1-c1nc2c(c(NCc3ccccc3)n1)CCCN2", "note": "[Compound 1, 1-(4-(benzylamino)-5,6,7,8-tetrahydropyrido[2,3-d]pyrimidin-2-yl)-2-methyl-1H-indole-4-carboxamide]", "values": [{"measurement": "Cmax", "setting": "[1]; 350 mg, 350 mg QD, Day 1, Mean", "result": "746 ng/mL and 1.81 µM"}, {"measurement": "Tmax", "setting": "[1]; 350 mg, 350 mg QD, Day 1, Mean", "result": 3.2, "unit": "h"}, {"measurement": "half-life", "setting": "[1]; 350 mg, 350 mg QD, Day 1, Mean", "result": 4.48, "unit": "h"}, {"measurement": "AUC(0-inf)", "setting": "[1]; 350 mg, 350 mg QD, Day 4, Mean", "result": "8570 ng·h/mL and 20.8 µM·h"}, {"measurement": "AUC(0-t)", "setting": "[1]; 350 mg, 350 mg QD, Day 4, Mean", "result": "8440 ng·h/mL and 20.4 µM·h"}, {"measurement": "Cmax", "setting": "[1]; 350 mg, 350 mg QD, Day 4, Mean", "result": "834 ng/mL and 2.02 µM"}, {"measurement": "Tmax", "setting": "[1]; 350 mg, 350 mg QD, Day 4, Mean", "result": 4, "unit": "h"}, {"measurement": "half-life", "setting": "[1]; 350 mg, 350 mg QD, Day 4, Mean", "result": 7.55, "unit": "h"}, {"measurement": "AUC(0-inf)", "setting": "[1]; 450 mg, 450 mg QD, Day 1, Mean", "result": "8860 ng·h/mL and 21.5 µM·h"}, {"measurement": "AUC(0-t)", "setting": "[1]; 450 mg, 450 mg QD, Day 1, Mean", "result": "8340 ng·h/mL and 20.2 µM·h"}, {"measurement": "Cmax", "setting": "[1]; 450 mg, 450 mg QD, Day 1, Mean", "result": "895 ng/mL and 2.17 µM"}, {"measurement": "Tmax", "setting": "[1]; 450 mg, 450 mg QD, Day 1, Mean", "result": 3, "unit": "h"}, {"measurement": "half-life", "setting": "[1]; 450 mg, 450 mg QD, Day 1, Mean", "result": 6.05, "unit": "h"}, {"measurement": "AUC(0-inf)", "setting": "[1]; 450 mg, 450 mg QD, Day 4, Mean", "result": "15900 ng·h/mL and 38.4 µM·h"}, {"measurement": "AUC(0-t)", "setting": "[1]; 450 mg, 450 mg QD, Day 4, Mean", "result": 14500, "unit": "ng·h/mL"}, {"measurement": "Cmax", "setting": "[1]; 450 mg, 450 mg QD, Day 4, Mean", "result": "1350 ng/mL and 3.28 µM"}, {"measurement": "Tmax", "setting": "[1]; 450 mg, 450 mg QD, Day 4, Mean", "result": 4, "unit": "h"}, {"measurement": "half-life", "setting": "[1]; 450 mg, 450 mg QD, Day 4, Mean", "result": 9.62, "unit": "h"}, {"measurement": "AUC(0-inf)", "setting": "[1]; 600 mg, 600 mg QD, Day 1, Mean", "result": "6500 ng·h/mL and 15.7 µM·h"}, {"measurement": "AUC(0-t)", "setting": "[1]; 600 mg, 600 mg QD, Day 1, Mean", "result": "5710 ng·h/mL and 13.8 µM·h"}, {"measurement": "Cmax", "setting": "[1]; 600 mg, 600 mg QD, Day 1, Mean", "result": "799 ng/mL and 1.93 µM"}, {"measurement": "Tmax", "setting": "[1]; 600 mg, 600 mg QD, Day 1, Mean", "result": 3.6, "unit": "h"}, {"measurement": "half-life", "setting": "[1]; 600 mg, 600 mg QD, Day 1, Mean", "result": 5.94, "unit": "h"}, {"measurement": "AUC(0-inf)", "setting": "[1]; 600 mg, 600 mg QD, Day 4, Mean", "result": "18200 ng·h/mL and 44 µM·h"}, {"measurement": "AUC(0-t)", "setting": "[1]; 600 mg, 600 mg QD, Day 4, Mean", "result": "17200 ng·h/mL and 41.7 µM·h"}, {"measurement": "Cmax", "setting": "[1]; 600 mg, 600 mg QD, Day 4, Mean", "result": "1960 ng/mL and 4.75 µM"}, {"measurement": "Tmax", "setting": "[1]; 600 mg, 600 mg QD, Day 4, Mean", "result": 3.4, "unit": "h"}, {"measurement": "half-life", "setting": "[1]; 600 mg, 600 mg QD, Day 4, Mean", "result": 9.77, "unit": "h"}, {"measurement": "AUC(0-inf)", "setting": "[1]; 750 mg, 750 mg QD, Day 1, Mean", "result": "6160 ng·h/mL and 14.9 µM·h"}, {"measurement": "AUC(0-t)", "setting": "[1]; 750 mg, 750 mg QD, Day 1, Mean", "result": "5960 ng·h/mL and 14.4 µM·h"}, {"measurement": "Cmax", "setting": "[1]; 750 mg, 750 mg QD, Day 1, Mean", "result": "796 ng/mL and 1.93 µM"}, {"measurement": "Tmax", "setting": "[1]; 750 mg, 750 mg QD, Day 1, Mean", "result": 3.33, "unit": "h"}, {"measurement": "half-life", "setting": "[1]; 750 mg, 750 mg QD, Day 1, Mean", "result": 4.49, "unit": "h"}, {"measurement": "AUC(0-inf)", "setting": "[1]; 750 mg, 750 mg QD, Day 4, Mean", "result": "13200 ng·h/mL and 32.1 µM·h"}, {"measurement": "AUC(0-t)", "setting": "[1]; 750 mg, 750 mg QD, Day 4, Mean", "result": "12900 ng·h/mL and 31.3 µM·h"}, {"measurement": "Cmax", "setting": "[1]; 750 mg, 750 mg QD, Day 4, Mean", "result": "2260 ng/mL and 5.48 µM"}, {"measurement": "Tmax", "setting": "[1]; 750 mg, 750 mg QD, Day 4, Mean", "result": 2.5, "unit": "h"}, {"measurement": "half-life", "setting": "[1]; 750 mg, 750 mg QD, Day 4, Mean", "result": 6.67, "unit": "h"}, {"measurement": "AUC(0-inf)", "setting": "[1]; 900 mg, 900 mg QD, Day 1, Mean", "result": "14000 ng·h/mL and 33.9 µM·h"}, {"measurement": "AUC(0-t)", "setting": "[1]; 900 mg, 900 mg QD, Day 1, Mean", "result": "12300 ng·h/mL and 29.8 µM·h"}, {"measurement": "Cmax", "setting": "[1]; 900 mg, 900 mg QD, Day 1, Mean", "result": "1550 ng/mL and 3.76 µM"}, {"measurement": "Tmax", "setting": "[1]; 900 mg, 900 mg QD, Day 1, Mean", "result": 2.5, "unit": "h"}, {"measurement": "half-life", "setting": "[1]; 900 mg, 900 mg QD, Day 1, Mean", "result": 5.71, "unit": "h"}, {"measurement": "AUC(0-inf)", "setting": "[1]; 900 mg, 900 mg QD, Day 4, Mean", "result": "27000 ng·h/mL and 65.3 µM·h"}, {"measurement": "AUC(0-t)", "setting": "[1]; 900 mg, 900 mg QD, Day 4, Mean", "result": "26700 ng·h/mL and 64.6 µM·h"}, {"measurement": "Cmax", "setting": "[1]; 900 mg, 900 mg QD, Day 4, Mean", "result": "3220 ng/mL and 7.8 µM"}, {"measurement": "Tmax", "setting": "[1]; 900 mg, 900 mg QD, Day 4, Mean", "result": 3.33, "unit": "h"}, {"measurement": "half-life", "setting": "[1]; 900 mg, 900 mg QD, Day 4, Mean", "result": 6.47, "unit": "h"}, {"measurement": "Cmax", "setting": "[1]; 175 mg QD, Day 1, Mean", "result": 1540, "unit": "nM"}, {"measurement": "AUC(0-t)", "setting": "[1]; 450 mg QD, Day 4, Mean", "result": 35.2, "unit": "µM·h"}, {"measurement": "exposures compared with CB-5083", "setting": "[1]; vs CB-5083 at greater than 200 mg, FIG. 4", "result": "greater than dosing CB-5083 at greater than 200 mg"}, {"measurement": "adverse events", "setting": "[2]; cohorts dosed 25 mg to 450 mg QD", "result": "No adverse events were observed"}, {"measurement": "visual adverse events at plasma exposure equivalent to CB-5083", "setting": "[2]; highest doses", "result": "no lasting symptoms"}, {"measurement": "symptoms of visual impairment", "setting": "[2]; lower dose cohorts", "result": "No symptoms of visual impairment"}, {"measurement": "visual adverse events at plasma exposure equivalent to CB-5083", "setting": "[2]; lower doses", "result": "no symptoms of visual impairment or other visual adverse events"}, {"measurement": "visual symptoms", "setting": "[2]; two patients in cohort X", "result": "low-grade visual symptoms on the day of dosing that did not persist"}]}
